Laboratory results as given in PMC10746543, “Design principles for cyclin K molecular glue degraders” (Nature Chemical Biology, 2023).
“And” between values parts separate entries of the source, which are not always exact repeats. Identical values can stand only once. Like-named read-outs stand apart in the source and are kept apart here.

Key:
CDK9–cyclin T = target: T1, CDK9–cyclin T (Homo sapiens, UniProt P50750); assay: Lanthascreen kinase binding assay, CDK9; settings: for Lanthascreen TR-FRET signal (raw ratio), sheet CDK9: third titration set (r25), duplicates
T1 construct: purchased Thermo Fisher
T1 sequence (P50750 whole entry): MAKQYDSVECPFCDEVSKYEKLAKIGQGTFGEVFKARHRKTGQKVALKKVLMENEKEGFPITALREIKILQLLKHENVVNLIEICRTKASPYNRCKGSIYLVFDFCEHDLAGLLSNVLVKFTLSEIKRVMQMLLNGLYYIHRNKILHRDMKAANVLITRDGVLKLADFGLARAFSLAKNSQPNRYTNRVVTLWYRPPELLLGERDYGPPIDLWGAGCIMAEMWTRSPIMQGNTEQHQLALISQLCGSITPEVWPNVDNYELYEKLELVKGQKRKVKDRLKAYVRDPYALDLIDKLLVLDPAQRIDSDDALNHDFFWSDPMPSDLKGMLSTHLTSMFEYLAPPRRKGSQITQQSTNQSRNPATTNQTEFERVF
T1 sequence (O60563 whole entry partner): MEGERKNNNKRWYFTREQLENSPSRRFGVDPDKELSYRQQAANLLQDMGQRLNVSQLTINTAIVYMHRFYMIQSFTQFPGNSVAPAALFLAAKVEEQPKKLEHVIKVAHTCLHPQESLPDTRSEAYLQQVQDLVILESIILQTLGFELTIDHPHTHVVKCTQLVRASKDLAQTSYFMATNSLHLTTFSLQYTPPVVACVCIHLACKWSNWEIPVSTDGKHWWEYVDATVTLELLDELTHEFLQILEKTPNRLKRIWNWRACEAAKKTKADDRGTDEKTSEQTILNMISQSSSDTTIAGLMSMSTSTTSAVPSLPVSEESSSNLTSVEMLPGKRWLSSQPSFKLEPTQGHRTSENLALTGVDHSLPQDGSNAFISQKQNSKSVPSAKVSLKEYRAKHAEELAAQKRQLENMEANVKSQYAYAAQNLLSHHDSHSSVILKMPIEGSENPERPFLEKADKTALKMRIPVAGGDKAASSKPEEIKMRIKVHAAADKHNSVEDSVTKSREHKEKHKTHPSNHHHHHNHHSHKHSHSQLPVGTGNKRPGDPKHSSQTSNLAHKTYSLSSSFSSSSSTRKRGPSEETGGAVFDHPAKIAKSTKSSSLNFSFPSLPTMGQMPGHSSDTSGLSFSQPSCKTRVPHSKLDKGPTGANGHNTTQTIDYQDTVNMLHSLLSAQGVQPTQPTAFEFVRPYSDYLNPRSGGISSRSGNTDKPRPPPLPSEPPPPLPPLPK
Description: (§1) Lanthascreen experiments were performed using commercially available reagents (Thermo Fisher) and according to the manufacturer’s instructions.

CDK12–cyclin K and DDB1 = target: T2, CDK12–cyclin K and DDB1 (Homo sapiens, UniProt Q16531+Q9NYV4, K965R); assay: TR-FRET ternary complex formation assay (compound titration); type: binding
T2 construct: His6–CDK12 (a.a. 713–1,052); full-length or beta-propeller B domain deletion (ΔBPB: a.a. 396–705 deleted) constructs of His6–DDB1ΔBPB, StrepII–Avi–DDB1, or His6–Spy–DDB1; made in house; host or cells: Trichoplusia ni High Five insect cells (baculovirus)
T2 sequence (Q9NYV4 713-1052 K965R): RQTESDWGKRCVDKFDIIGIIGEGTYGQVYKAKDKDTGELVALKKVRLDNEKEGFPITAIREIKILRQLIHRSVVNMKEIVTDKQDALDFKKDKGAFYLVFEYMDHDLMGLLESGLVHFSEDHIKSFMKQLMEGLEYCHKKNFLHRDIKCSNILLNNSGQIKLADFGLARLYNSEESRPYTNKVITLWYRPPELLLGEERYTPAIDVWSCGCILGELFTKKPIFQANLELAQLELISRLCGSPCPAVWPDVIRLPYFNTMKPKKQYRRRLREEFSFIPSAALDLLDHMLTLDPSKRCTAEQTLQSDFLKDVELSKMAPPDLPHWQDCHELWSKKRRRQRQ
T2 sequence (O75909 1-267 partner): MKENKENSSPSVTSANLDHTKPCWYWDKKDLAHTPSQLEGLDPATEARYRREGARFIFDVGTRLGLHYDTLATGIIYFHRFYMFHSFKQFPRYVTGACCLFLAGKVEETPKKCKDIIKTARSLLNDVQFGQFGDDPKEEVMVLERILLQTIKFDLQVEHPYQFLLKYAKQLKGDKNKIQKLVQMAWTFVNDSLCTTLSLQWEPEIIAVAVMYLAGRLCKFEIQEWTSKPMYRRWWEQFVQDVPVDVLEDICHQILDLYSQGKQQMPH
T2 sequence (Q16531 whole entry): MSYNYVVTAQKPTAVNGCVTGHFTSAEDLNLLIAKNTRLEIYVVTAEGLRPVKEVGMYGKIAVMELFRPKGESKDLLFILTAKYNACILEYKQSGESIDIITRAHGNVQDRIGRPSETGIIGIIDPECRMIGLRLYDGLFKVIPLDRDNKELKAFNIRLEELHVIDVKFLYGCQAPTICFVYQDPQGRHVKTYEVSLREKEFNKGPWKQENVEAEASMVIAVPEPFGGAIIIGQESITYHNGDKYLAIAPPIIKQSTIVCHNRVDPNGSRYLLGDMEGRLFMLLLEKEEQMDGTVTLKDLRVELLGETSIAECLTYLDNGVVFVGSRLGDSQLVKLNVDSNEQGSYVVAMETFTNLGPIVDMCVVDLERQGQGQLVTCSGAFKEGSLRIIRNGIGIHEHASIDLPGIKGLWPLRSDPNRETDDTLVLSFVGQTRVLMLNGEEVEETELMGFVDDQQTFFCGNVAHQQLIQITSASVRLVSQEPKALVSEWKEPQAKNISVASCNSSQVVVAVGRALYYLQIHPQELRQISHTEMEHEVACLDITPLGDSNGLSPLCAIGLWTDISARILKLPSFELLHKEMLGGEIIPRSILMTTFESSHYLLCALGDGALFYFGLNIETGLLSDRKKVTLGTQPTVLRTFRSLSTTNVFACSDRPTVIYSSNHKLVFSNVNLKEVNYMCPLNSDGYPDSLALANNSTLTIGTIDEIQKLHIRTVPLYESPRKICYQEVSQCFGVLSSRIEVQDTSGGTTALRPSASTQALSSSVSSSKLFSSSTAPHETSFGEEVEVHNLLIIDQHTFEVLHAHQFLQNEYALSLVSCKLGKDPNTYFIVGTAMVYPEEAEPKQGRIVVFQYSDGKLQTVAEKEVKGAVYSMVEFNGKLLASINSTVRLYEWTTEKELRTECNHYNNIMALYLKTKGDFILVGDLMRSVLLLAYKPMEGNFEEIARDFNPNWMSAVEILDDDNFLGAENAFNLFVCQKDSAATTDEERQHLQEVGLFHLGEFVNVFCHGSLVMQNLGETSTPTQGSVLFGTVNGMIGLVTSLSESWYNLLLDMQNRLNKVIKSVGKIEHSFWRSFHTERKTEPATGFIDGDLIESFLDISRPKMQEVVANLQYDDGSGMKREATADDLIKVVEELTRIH
How it was run: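 Read-out used a 70 μs delay to cut background fluorescence; TR-FRET signal taken as the 520 nm/490 nm emission ratio.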

[1] = test system: cyclin K–eGFP degradation reporter; assay: Cyclin K reporter stability analysis (dual-color cyclin K–eGFP reporter); type: cell-based, human; settings: source data sheet correlations; read-out: DC50
How it was run: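 Readout was the eGFP-to-mCherry geometric-mean ratio by flow cytometry, normalized to three DMSO controls, after 5 h drug exposure. Cells used were HEK293T–Cas9 expressing the dual-colour cyclin K–eGFP degradation reporter.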

HEK293T cells = assay: Drug sensitivity assay (CellTiter-Glo viability) with or without MLN4924 pretreatment; type: cell-based, human; settings: Supplementary Table 2
How it was run: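 HEK293T–Cas9 cells at 0.15 × 10^6 ml^−1 were treated with DMSO or 100 nM MLN4924 before plating. Test drugs were added 2 h later and exposure lasted 3 days. Viability was read by CellTiter-Glo luminescence and expressed relative to DMSO controls.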

CDK12–cyclin K = CDK12–cyclin K (Homo sapiens, UniProt Q9NYV4); assay: Lanthascreen kinase binding assay, CDK12; settings: for Lanthascreen raw signal, sheet CDK12: series r37, duplicates
CDK12–cyclin K, sequence (Q9NYV4 713-1052): as the sequence (Q9NYV4 713-1052 K965R) above, with R253K counted along it
CDK12–cyclin K, sequence (O75909 1-267 partner limits assumed): as the sequence (O75909 1-267 partner) above
Description: as §1

CDK2–cyclin A = target: T3, CDK2–cyclin A (Homo sapiens, UniProt P24941); assay: Lanthascreen kinase binding assay, CDK2; settings: for Lanthascreen signal, sheet CDK2: raw replicates, experiment r36-r46
T3 construct: purchased Thermo Fisher
Description: as §1

CC[C@H](CO)Nc1nc(NCc2nc3cc(Cl)c(Cl)cc3[nH]2)c2ncn(-c3cnn(C)c3)c2n1 [DS22]
IC50 (CDK9–cyclin T; Lanthascreen, average, Extended Data Fig. 8, read-out: CDK9 IC50): > 10000 nM
IC50 (CDK9–cyclin T; Supplementary Table 2, read-out: Lanthascreen IC50 [nM] CDK9): > 10000 nM
Lanthascreen TR-FRET signal (raw ratio), sheet CDK9 (CDK9–cyclin T; compound 0.038147 nM): 0.01967 and 0.01921
Lanthascreen TR-FRET signal (raw ratio), sheet CDK9 (CDK9–cyclin T; compound 0.152588 nM): 0.02095 and 0.01844
Lanthascreen TR-FRET signal (raw ratio), sheet CDK9 (CDK9–cyclin T; compound 0.610352 nM): 0.02014 and 0.01923
Lanthascreen TR-FRET signal (raw ratio), sheet CDK9 (CDK9–cyclin T; compound 9.76563 nM): 0.02017 and 0.01981
Lanthascreen TR-FRET signal (raw ratio), sheet CDK9 (CDK9–cyclin T; compound 39.0625 nM): 0.02067 and 0.01823
Lanthascreen TR-FRET signal (raw ratio), sheet CDK9 (CDK9–cyclin T; compound 156.25 nM): 0.02063 and 0.01896
Lanthascreen TR-FRET signal (raw ratio), sheet CDK9 (CDK9–cyclin T; compound 625 nM): 0.01918 and 0.01876
Lanthascreen TR-FRET signal (raw ratio), sheet CDK9 (CDK9–cyclin T; compound 2500 nM): 0.01797 and 0.01674
Lanthascreen TR-FRET signal (raw ratio), sheet CDK9 (CDK9–cyclin T; compound 10000 nM): 0.01641 and 0.01561
TR-FRET signal at compound concentration 0.468 nM (CDK12–cyclin K and DDB1; compound concentration 0.468 nM, raw replicate titration data): 0.2612 and 0.2579 and 0.218 and 0.2096
TR-FRET signal at compound concentration 2.16 nM (CDK12–cyclin K and DDB1; compound concentration 2.16 nM, raw replicate titration data): 0.3357 and 0.3419 and 0.2765 and 0.3174
TR-FRET signal at compound concentration 3.6 nM (CDK12–cyclin K and DDB1; compound concentration 3.6 nM, raw replicate titration data): 0.4892 and 0.5148 and 0.5183 and 0.5347
TR-FRET signal at compound concentration 7.92001 nM (CDK12–cyclin K and DDB1; compound concentration 7.92001 nM, raw replicate titration data): 0.8316 and 0.8843 and 0.9885 and 1.068
TR-FRET signal at compound concentration 15.84 nM (CDK12–cyclin K and DDB1; compound concentration 15.84 nM, raw replicate titration data): 1.474 and 1.574 and 1.714 and 1.959
TR-FRET signal at compound concentration 30.96 nM (CDK12–cyclin K and DDB1; compound concentration 30.96 nM, raw replicate titration data): 2.47 and 2.714 and 3.094 and 3.238
TR-FRET signal at compound concentration 62.6401 nM (CDK12–cyclin K and DDB1; compound concentration 62.6401 nM, raw replicate titration data): 3.3967 and 3.4513 and 3.77 and 3.733
TR-FRET signal at compound concentration 125.28 nM (CDK12–cyclin K and DDB1; compound concentration 125.28 nM, raw replicate titration data): 3.673 and 3.6963 and 3.89 and 3.859
TR-FRET signal at compound concentration 244.8 nM (CDK12–cyclin K and DDB1; compound concentration 244.8 nM, raw replicate titration data): 3.796 and 3.869 and 3.911 and 3.923
TR-FRET signal at compound concentration 993.601 nM (CDK12–cyclin K and DDB1; compound concentration 993.601 nM, raw replicate titration data): 3.806 and 3.925 and 3.935 and 3.945
TR-FRET signal at compound concentration 2001.6 nM (CDK12–cyclin K and DDB1; compound concentration 2001.6 nM, raw replicate titration data): 3.846 and 3.958 and 4 and 4.014
EC50 (CDK12–cyclin K and DDB1; in vitro complex formation, 50 nM CDK12–cyclin K, 100 nM DDB1, text and figures, read-out: TR-FRET EC50): 19 ± 1 nM
EC50 (CDK12–cyclin K and DDB1; sheet MOESM7, read-out: log TR-FRET EC50 (converted)): 19.3 nM
EC50 (CDK12–cyclin K and DDB1; source data sheet correlations, read-out: TR-FRET EC50): 19.3 nM
DC50 [1]: 109 nM
EC50 (HEK293T cells; Homo sapiens, HEK-293T, HEK293T viability, 72 h, compound alone, read-out: Cellular assays EC50): 935 nM
Toxicity rescue (HEK293T cells; MLN4924-mediated cytotoxicity rescue, 10 µM used where n.d.): 66%
IC50 (CDK12–cyclin K; Supplementary Table 2, read-out: Lanthascreen IC50 [nM] CDK12): 1320 nM
Lanthascreen raw signal, sheet CDK12 (CDK12–cyclin K; compound 0.038147 nM): 0.01422 and 0.01468
Lanthascreen raw signal, sheet CDK12 (CDK12–cyclin K; compound 0.152588 nM): 0.01335 and 0.01357
Lanthascreen raw signal, sheet CDK12 (CDK12–cyclin K; compound 0.610352 nM): 0.01416 and 0.01634
Lanthascreen raw signal, sheet CDK12 (CDK12–cyclin K; compound 9.76563 nM): 0.01407 and 0.01436
Lanthascreen raw signal, sheet CDK12 (CDK12–cyclin K; compound 39.0625 nM): 0.01347 and 0.01362
Lanthascreen raw signal, sheet CDK12 (CDK12–cyclin K; compound 156.25 nM): 0.01258 and 0.01228
Lanthascreen raw signal, sheet CDK12 (CDK12–cyclin K; compound 625 nM): 0.01036 and 0.01104
Lanthascreen raw signal, sheet CDK12 (CDK12–cyclin K; compound 2500 nM): 0.007943 and 0.008192
Lanthascreen raw signal, sheet CDK12 (CDK12–cyclin K; compound 10000 nM): 0.006259 and 0.005981
Lanthascreen signal, sheet CDK2 (CDK2–cyclin A; Compound 0.038147 nM): 0.01361 and 0.01332
Lanthascreen signal, sheet CDK2 (CDK2–cyclin A; Compound 0.152588 nM): 0.01367 and 0.01361
Lanthascreen signal, sheet CDK2 (CDK2–cyclin A; Compound 0.610352 nM): 0.01456 and 0.01463
Lanthascreen signal, sheet CDK2 (CDK2–cyclin A; Compound 9.76563 nM): 0.01461 and 0.01423
Lanthascreen signal, sheet CDK2 (CDK2–cyclin A; Compound 39.0625 nM): 0.01375 and 0.01404
Lanthascreen signal, sheet CDK2 (CDK2–cyclin A; Compound 156.25 nM): 0.01392 and 0.01367
Lanthascreen signal, sheet CDK2 (CDK2–cyclin A; Compound 625 nM): 0.01433 and 0.01409
Lanthascreen signal, sheet CDK2 (CDK2–cyclin A; Compound 2500 nM): 0.01378 and 0.01394
Lanthascreen signal, sheet CDK2 (CDK2–cyclin A; Compound 10000 nM): 0.01296 and 0.01217
IC50 (CDK2–cyclin A; Lanthascreen, average, Extended Data Fig. 8, read-out: CDK2 IC50): > 10000 nM
IC50 (CDK2–cyclin A; Supplementary Table 2, read-out: Lanthascreen IC50 [nM] CDK2): > 10000 nM
